The source of these data is patent EP4763221A1, “COMPOUND AND ANTIBODY-DRUG CONJUGATE COMPRISING SAME” (priority 2023, dated 2025).

The subject of assay [1] is MDA-MB-453 cells. In words: ADCC activity with PBMCs (LDH cytotoxicity detection). The format is cell-based. As to conditions: 5, 15 and 45 µg/mL, PBMC effector-to-target ratio 30:1, 4 h. On the procedure: MDA-MB-453 cells (purchased from Cobioer Biosciences Co., Ltd., Cat. No. CBP60386) and PBMCs (provided by Zhongshan Blood Center) in the logarithmic growth phase were collected and centrifuged at 170× g for 5 min, and the supernatant was discarded. The cell pellet was resuspended in an assay medium (RPMI-1640 containing 1% FBS), centrifuged and washed twice, and the cells were counted. The cell density was adjusted with the assay medium, and the target cell suspension was seeded into a 96-well plate (containing about 3 × 10^4 target cells/well) at 50 µL/well. Then, serially diluted drugs (5 µg/mL, 15 µg/mL, and 45 µg/mL based on the working concentration of the antibody, respectively) were added, and the plate was pre-incubated at room temperature for 1 h. After the pre-incubation was completed, the PBMC suspension was added to the sample wells at 100 µL/well (each well contained about 9 × 10^5 PBMCs with an effector-to-target ratio of 30:1), mixed uniformly, and incubated in an incubator at 37 °C with 5% CO2 for 4 h. After the incubation was completed, the 96-well plate was taken out and centrifuged at 250× g for 5 min. 100 µL of culture supernatant was carefully pipetted and transferred to another 96-well plate. […] OD values at 490 nm and 650 nm were measured. […] The ADCC activity (expressed as ADCC%) was calculated based on the measured OD value of each group. […]

In assay [2] the test system is MDA-MB-453 cells. Briefly: FACS assay for internalization activity in MDA-MB-453 cells. The format is cell-based. The conditions noted are these: 100 nM, 37 °C for 1 h, 3 h and 5 h, compared to isotype control IgG-Dxd. On the procedure:
MDA-MB-453 cells (purchased from Cobioer Biosciences Co., Ltd., Cat. No. CBP60386) were collected, counted, and determined for cell viability. The cell suspension was added to a 96-well low-adsorption plate at 1 × 10^5 cells/sample and centrifuged at 750× g for 5 min. The supernatant was discarded. 100 µL of the experimental drug (at a working concentration of 100 nM) was added, with an isotype control (IgG-Dxd, at a working concentration of 100 nM) designed in parallel. The mixture was mixed uniformly and incubated in an incubator at 37 °C for 1 h, 3 h, and 5 h. After the incubation was completed, 1% PBSA (PBS + 1% BSA) was added, and the mixture was centrifuged at 750× g for 5 min. The supernatant was discarded, and the cells were washed twice with 1% PBSA. 100 µL of patritumab (at a working concentration of 100 nM) was added, and the mixture was incubated on ice for 30 min. 1% PBSA (PBS + 1% BSA) was added, and the mixture was centrifuged at 750× g for 5 min. The supernatant was discarded, and the cells were further washed twice with 1% PBSA. 100 µL of 300-fold diluted fluorescent antibody Mouse Anti-Human IgG Fc-Alexa Fluor 647 (Southern Biotech, Cat. No. 9040-31) was added, and the cell pellet was resuspended and incubated on ice for 30 min in the dark. 1% PBSA (PBS + 1% BSA) was added, and the mixture was centrifuged at 1000× g for 5 min. […]

Assay [3] deals with HCC827 human lung cancer cell xenograft tumor. In words: In vivo efficacy in xenograft tumor model. Set-up: species or system CB-17 SCID mice. The conditions noted are these: 3 mg/kg and 1.5 mg/kg, IV, weekly×3, compared to isotype control antibody. From the text: To determine the anti-tumor activity of the anti-HER3 antibody-drug conjugates in vivo, HCC827 human lung cancer cells (purchased from GuangZhou Jennio Biotech Co., Ltd.) were first inoculated subcutaneously into 5- to 8-week-old female CB-17 SCID mice (purchased from Guangdong Model Organisms Center, Inc.) on the upper posterior region of the right hind thigh. The day of grouping was defined as D0. The route of administration was intravenous injection (iv), once a week for a total of 3 doses. After the administration, the length and width of the tumors in each group were measured, and the tumor volume was calculated. Table 7: Dosing regimen of anti-HER3 antibody-drug conjugates for treatment of CB-17 SCID mouse model of HCC827 human lung cancer cell xenograft tumor

A further assay has as its system NCI-H1781 cells. In words: Specific cell killing activity (CellTiter-Glo). The assay is classed as cell-based. The conditions noted are these: medium with 10% human ab serum, 6 days. On the procedure: NCI-H1781 cells (Cobioer Biosciences Co., Ltd., Cat. No. CBP60116) were collected, and centrifuged at 1000× g for 5 min, and then the supernatant was removed. The cells were resuspended and counted, and the viability was determined. The cells were diluted, and NCI-H1781 (2500 cells/100 µL) was added to each well of a black-bottom 96-well plate. The plate was incubated in an incubator at 37 °C with 5% CO2 overnight. The experimental drug was diluted with a medium (10% human ab serum), and 100 µL of the experimental drug was added to each well according to the experimental design. A blank control was designed, with three replicate wells set for each group. The plate was incubated in an incubator at 37 °C with 5% CO2 for 6 days. After incubation, the 96-well plate was centrifuged at 350× g for 5 min, and then 135 µL of the supernatant was discarded. 60 µL of CellTiter-Glo (Promega, Cat. No. G8461) was added to each well. The plate was incubated at room temperature for 15 min. Then the […] value was detected by a multi-label microplate tester.

For the substance “KA0013: anti-HER3 antibody-drug conjugate: patritumab conjugated via thioether bonds to Mc-AAA-Dxd (KA0012)”, the ADCC activity result in the assay on MDA-MB-453 cells [1] was “had ADCC activity”. Besides, the “endocytic (internalization) activity” value with MDA-MB-453 cells [2] is listed as “could be endocytosed in MDA-MB-453”. Further, the “growth of mouse tumors (tumor volume)” value in assay [3] is listed as “effectively inhibit the growth of mouse tumors”. For the same substance, the “specific cell killing activity” value with NCI-H1781 cells is listed as “specifically kill NCI-H1781 cells”.
